Measurements taken from patent publication US4015974A, “Amido phosphorothiolates” (priority 1972, dated 1977).
Values after ≈ are worked out from the molar mass of the structure shown.

How the values were obtained:
Type in all cases: in vivo
[1] = test system: barnyard grass (Echinochloa crus-galli); assay: Pre-emergence application, herbicidal effect on barnyard grass (Table 1); parameters: key: 0: not damaged; 5: completely killed; details: 20 days after application, score 0-5
Summary of the method: (§1)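 Soil treatment after sowing, pre-emergence; wettable powder formulations diluted with water. Greenhouse, 20 d. Score 0 = no damage, 5 = complete kill.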

rice = assay: Water application, phytotoxicity on rice (Table 2); parameters: key: 0: no effect; 1: very slightly affected; 2: slightly affected; 3: moderately affected; 4: considerably affected; 5: completely killed; details: 25 days, score 0-5
Summary of the method: (§2)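 Paddy-soil pots flooded to paddy conditions; rice transplanted at 3-leaf stage, barnyard grass sown, broad-leaved weeds germinating spontaneously. Test compounds applied as wettable powder to soil under flooded water. Herbicidal effect and rice phytotoxicity scored 0–5 at 25 days after application.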

[2] = test system: redroot pigweed (Amaranthus retroflexus); assay: Pre-emergence application, herbicidal effect on redroot pigweed (Table 1); parameters: key: 0: not damaged; 5: completely killed; details: 20 days after application, score 0-5
Summary of the method: as §1

[3] = test system: large crabgrass (Digitaria sanguinalis); assay: Pre-emergence application, herbicidal effect on large crabgrass (Table 1); parameters: key: 0: not damaged; 5: completely killed; details: 20 days after application, score 0-5
Summary of the method: as §1

[4] = test system: barnyard grass (Echinochloa crus-galli); assay: Water application, herbicidal effect on barnyard grass (Table 2); parameters: key: 0: no effect; 1: very slightly affected; 2: slightly affected; 3: moderately affected; 4: considerably affected; 5: completely killed; details: 10 g/a, 25 days, score 0-5
Excerpt: (§3) Wagner pots of 14 cm. in diameter, which had been packed with 1.5 kg. of paddy field soil, were brought into the state of paddy fields. To the pots were transplanted rice seedlings at the 3-leave stage. Further, seeds of barnyard grass (Echinochloa crus-galli) were sowed in the pots and required amounts of test compounds were applied to the soil under water lodged condition. 25 days after application, the degrees of herbicidal activity and phytotoxity were investigated on above-mentioned plants which had been transplanted and sowed, and on broad-leaved weeds, e.g., monochoria (Monochoria viaginalis Presl.), false pimpernel (Linderna pyxidaria) and toothcup (Rotala indica Koehue), which had been spontaneously germinated. The test compounds were used in the form of wettable powder. The herbicidal effects and the phytotoxity were evaluated as follows by the numerals ranging from 0 to 5.

radish = assay: Pre-emergence application, herbicidal effect on radish (Table 1); parameters: key: 0: not damaged; 5: completely killed; details: 20 days after application, score 0-5
Summary of the method: as §1

[5] = test system: barnyard grass (Echinochloa crus-galli); assay: Water application, herbicidal effect on barnyard grass (Table 2); parameters: key: 0: not damaged; 5: completely killed; details: 25 days, score 0-5
Summary of the method: as §2

[6] = test system: common lambsquarter (Chenopodium album); assay: Pre-emergence application, herbicidal effect on common lambsquarter (Table 1); parameters: key: 0: not damaged; 5: completely killed; details: 20 days after application, score 0-5
Summary of the method: as §1

[7] = test system: common purslane (Portulaca oleracea); assay: Pre-emergence application, herbicidal effect on common purslane (Table 1); parameters: key: 0: not damaged; 5: completely killed; details: 20 days after application, score 0-5
Summary of the method: as §1

[8] = test system: broad-leaved weeds, e.g., monochoria, false pimpernel and toothcup; assay: Water application, herbicidal effect on broad-leaved weeds (Table 2); parameters: key: 0: not damaged; 5: completely killed; details: 25 days, score 0-5
Summary of the method: as §2

[9] = test system: broad-leaved weeds, e.g., monochoria, false pimpernel and toothcup; assay: as above; parameters: key: 0: no effect; 1: very slightly affected; 2: slightly affected; 3: moderately affected; 4: considerably affected; 5: completely killed; details: 10 g/a, 25 days, score 0-5
Excerpt: as §3

nematode = assay: Effect on nematode (Table 7); parameters: tested at 500 ppm; details: 500 p.p.m., 24 hours
Procedure: 0.5 ml. of a nematode-containing aqueous solution separated from food according to Baermann's method was placed in a test tube with ground stopper containing 0.5 ml. of an aqueous dilute solution of each emulsifiable concentrates of the present compounds. The concentration of the active ingredient in the mixture was adjusted to 500 p.p.m. After 24 hours, the death and alive were observed microscopically to calculate the mortality.

[10] = test system: carmine mite (Tetranychus telavius); assay: Lethal effect on carmine mite, leaf dipping (Table 3); details: foliar, 48 h
Procedure: A large number of carmine mite adult were made parasitic on leaves of potted kidney beans at a 2-leaves stage which had elapsed 10 days after sowing. The leaves of kidney bean on which carmine mites had been made parasitic were dipped for 1 minute in each aqueous solution of the present compounds of wettable powder type. Water was given to the leaves not to kill them, and after 48 hours the death and alive were observed microscopically to calculate the mortality. Values of LC50 were obtained from the mortality.

[11] = test system: rice stem borer (Chilo suppressalis); assay: Lethal effect on rice stem borer (Table 6); details: 50 % emulsifiable concentrate, 1000 fold dilute solution, 4 days after application
Excerpt: Eggs just before hatch of the rice stem borer were applied in a ratio of 100/pot near the root of rice plants grown up into the tillering stage in an […] Wagner's pot. After eggs were hatched and the larvae entered into stems of rice plants, an 1000 fold dilute solution of each 50 % emulsifiable concentrates of the present compounds was applied by means of a turn table.

SMILES	Herbicidal effect, barnyard grass ([1]; 10 g./a.)	Herbicidal effect, barnyard grass ([1]; 20 g./a.)	Herbicidal effect, barnyard grass ([1]; 40 g./a.)	Phytotoxicity on rice (rice; 10 g/a)	Phytotoxicity on rice (rice; 20 g/a)	Phytotoxicity on rice (rice; 40 g/a)	Herbicidal effect, redroot pigweed ([2]; 10 g./a.)	Herbicidal effect, redroot pigweed ([2]; 20 g./a.)	Herbicidal effect, redroot pigweed ([2]; 40 g./a.)	Herbicidal effect, large crabgrass ([3]; 10 g./a.)	Herbicidal effect, large crabgrass ([3]; 20 g./a.)	Herbicidal effect, large crabgrass ([3]; 40 g./a.)	Herbicidal effect, radish (radish; 10 g./a.)	Herbicidal effect, radish (radish; 20 g./a.)	Herbicidal effect, radish (radish; 40 g./a.)	Herbicidal effects, barnyard grass ([5]; 20 g/a)	Herbicidal effects, barnyard grass ([5]; 40 g/a)	Herbicidal effect, common lambsquarter ([6]; 10 g./a.)	Herbicidal effect, common lambsquarter ([6]; 20 g./a.)	Herbicidal effect, common lambsquarter ([6]; 40 g./a.)	other results
C=CCSP(=O)(OCCC)SCC(=O)N1CCCCC1CC (stereo not shown) [Compound 91]	4	5	5	0	0	0	3	3	4	5	5	5	0	0	0	5	5	3	3	4	Herbicidal effects, barnyard grass [4]: 4; Herbicidal effect, common purslane ([7]; 10 g./a.): 3; Herbicidal effect, common purslane ([7]; 20 g./a.): 4; Herbicidal effect, common purslane ([7]; 40 g./a.): 4; Herbicidal effects, broad-leaved weeds ([8]; 10 g/a): 5; Herbicidal effects, broad-leaved weeds ([8]; 20 g/a): 5; Herbicidal effects, broad-leaved weeds ([8]; 40 g/a): 5
CCOP(=O)(SCC(=O)N1CCCCC1C)SCC(C)c1ccccc1 (stereo not shown) [Compound 65]	5	5	5	0	0	0	4	4	5	5	5	5	0	0	0	5	5	4	4	5	Herbicidal effects, barnyard grass [4]: 4; Herbicidal effect, common purslane ([7]; 10 g./a.): 4; Herbicidal effect, common purslane ([7]; 20 g./a.): 4; Herbicidal effect, common purslane ([7]; 40 g./a.): 5; Herbicidal effects, broad-leaved weeds ([8]; 10 g/a): 5; Herbicidal effects, broad-leaved weeds ([8]; 20 g/a): 5; Herbicidal effects, broad-leaved weeds ([8]; 40 g/a): 5
CCCCSP(=O)(OCC)SCC(=O)N1CCCCC1C (stereo not shown) [Compound 4]	4	5	5	0	0	0	4	4	4	5	5	5	0	0	0	5	5	4	4	5	Herbicidal effects, broad-leaved weeds [9]: 4; Mortality (nematode): 100%; Herbicidal effects, barnyard grass ([5]; 10 g/a): 5; Herbicidal effect, common purslane ([7]; 10 g./a.): 4; Herbicidal effect, common purslane ([7]; 20 g./a.): 4; Herbicidal effect, common purslane ([7]; 40 g./a.): 5; LC50 [10]: 11.4 µg/mL (≈ 32.2 µM); Herbicidal effects, broad-leaved weeds ([8]; 20 g/a): 5; Herbicidal effects, broad-leaved weeds ([8]; 40 g/a): 5; Mortality [11]: 97.6%
CCCCSP(=O)(OCC)SCC(=O)N1CCC(C)CC1 (stereo not shown) [Compound 24]	4	5	5	0	0	0	3	4	4	4	5	5	0	0	0	5	5	3	4	4	Herbicidal effects, broad-leaved weeds [9]: 4; Herbicidal effects, barnyard grass ([5]; 10 g/a): 5; Herbicidal effect, common purslane ([7]; 10 g./a.): 4; Herbicidal effect, common purslane ([7]; 20 g./a.): 4; Herbicidal effect, common purslane ([7]; 40 g./a.): 4; Herbicidal effects, broad-leaved weeds ([8]; 20 g/a): 5; Herbicidal effects, broad-leaved weeds ([8]; 40 g/a): 5; Mortality [11]: 83.0%
